{
  "source": "the Kinase Knowledgebase extract (Sharma et al. 2016)",
  "data": [
    {"target": "EGFR (UniProt P00533)", "sequence (P00533 whole entry, looked up)": "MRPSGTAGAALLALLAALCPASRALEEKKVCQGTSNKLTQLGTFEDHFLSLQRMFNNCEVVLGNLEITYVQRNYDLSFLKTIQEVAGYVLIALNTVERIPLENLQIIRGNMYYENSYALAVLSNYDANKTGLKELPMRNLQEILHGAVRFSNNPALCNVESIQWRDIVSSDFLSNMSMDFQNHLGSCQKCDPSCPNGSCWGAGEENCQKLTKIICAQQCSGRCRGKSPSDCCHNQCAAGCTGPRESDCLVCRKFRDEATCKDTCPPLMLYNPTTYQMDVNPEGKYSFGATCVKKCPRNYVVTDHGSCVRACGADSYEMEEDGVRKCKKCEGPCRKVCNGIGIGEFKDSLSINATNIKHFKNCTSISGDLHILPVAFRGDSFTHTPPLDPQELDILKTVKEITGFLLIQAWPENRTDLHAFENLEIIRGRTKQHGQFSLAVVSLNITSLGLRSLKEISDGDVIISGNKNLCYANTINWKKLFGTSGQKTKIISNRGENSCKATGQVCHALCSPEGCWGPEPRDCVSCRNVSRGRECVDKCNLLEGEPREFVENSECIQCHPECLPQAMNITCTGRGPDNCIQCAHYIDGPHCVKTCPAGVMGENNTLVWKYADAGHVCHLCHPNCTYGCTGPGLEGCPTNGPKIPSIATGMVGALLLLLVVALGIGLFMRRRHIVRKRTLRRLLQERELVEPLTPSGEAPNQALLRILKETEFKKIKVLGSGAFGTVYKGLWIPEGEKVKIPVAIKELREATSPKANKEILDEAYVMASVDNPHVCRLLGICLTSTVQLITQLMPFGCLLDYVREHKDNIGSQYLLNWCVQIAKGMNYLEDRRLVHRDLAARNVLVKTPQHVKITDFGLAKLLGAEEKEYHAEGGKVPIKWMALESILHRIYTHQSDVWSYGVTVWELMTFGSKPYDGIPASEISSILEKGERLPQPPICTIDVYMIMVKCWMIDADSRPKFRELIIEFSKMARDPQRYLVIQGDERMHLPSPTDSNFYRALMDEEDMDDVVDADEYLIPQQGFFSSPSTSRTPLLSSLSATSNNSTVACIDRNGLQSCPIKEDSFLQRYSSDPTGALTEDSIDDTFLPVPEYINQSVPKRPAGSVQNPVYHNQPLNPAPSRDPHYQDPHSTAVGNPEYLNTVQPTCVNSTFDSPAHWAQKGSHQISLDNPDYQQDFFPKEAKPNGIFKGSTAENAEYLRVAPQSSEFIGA", "details": "concentration not given here", "units": {"inhibition": "%"}, "values": [
      {"smiles": "C=CC(=O)Nc1ccc(OC)c(C(=O)Nc2cccc(C(O)c3ccccc3)c2)c1", "note": "(centres undefined)", "inhibition": 5.84},
      {"smiles": "CCC(=O)Nc1ccc(O)c(C(=O)Nc2ccc(Oc3ccccc3)cc2)c1", "inhibition": 48.5},
      {"smiles": "C=CC(=O)Nc1ccc(OC)c(C(=O)Nc2cccc(Oc3ccccc3)c2)c1", "inhibition": 1.59},
      {"smiles": "CCC(=O)Nc1ccc(O)c(C(=O)Nc2cccc(C(=O)N(CC)CC)c2)c1", "inhibition": 46.6}
    ]}
  ]
}
